We go through 32 compounds from US20220388962A1 (Biohaven Therapeutics Ltd., priority 2019, published 2022).

Each structure is given as a SMILES string.

T1 sequence (Q13148 whole entry): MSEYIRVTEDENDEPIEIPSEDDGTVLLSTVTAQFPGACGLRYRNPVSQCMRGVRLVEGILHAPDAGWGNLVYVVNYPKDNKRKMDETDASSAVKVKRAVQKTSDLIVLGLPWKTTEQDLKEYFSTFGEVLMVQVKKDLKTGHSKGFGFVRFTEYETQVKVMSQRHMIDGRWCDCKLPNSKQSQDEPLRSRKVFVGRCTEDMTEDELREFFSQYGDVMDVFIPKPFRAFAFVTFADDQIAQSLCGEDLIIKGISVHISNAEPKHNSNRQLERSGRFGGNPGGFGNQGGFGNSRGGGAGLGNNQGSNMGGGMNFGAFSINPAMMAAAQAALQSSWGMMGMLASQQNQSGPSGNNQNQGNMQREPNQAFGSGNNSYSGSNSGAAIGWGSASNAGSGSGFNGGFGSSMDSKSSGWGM

The target in the first test is T1, TDP-43 (Homo sapiens, UniProt Q13148). In words: TDP-43-DNA alpha-screen assay (bt-TAR-32 displacement). The class given is binding. The conditions noted are these: bt-TAR-32 0.125 nM, 15 ng/ml TDP-43. The method, boiled down:
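GST-TDP-43 (15 ng/ml final) on anti-GST acceptor beads pre-incubated 30 min at 23 °C with compound (50 to 0.02 μM, half-log) in 25 mM Tris pH 7.4, 0.1% BSA, 0.1% Triton X-100. Biotinylated TAR-32 DNA (0.125 nM final) on streptavidin donor beads added, 90 min at 23 °C dark; AlphaScreen signal fitted for IC50.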
A general note: In Alpha technology, singlet oxygen from a donor bead excites a nearby acceptor bead.
As usually defined, the IC50 is the point on the concentration scale where inhibition reaches its midpoint. With `COc1ccc(-c2cc(N[C@H]3C[C@@H](N)C3)c3ccccc3n2)cc1` [Example 112], the IC50 came out at 490 nM. Consider `NCCCNc1cc(-c2ccc3ncccc3c2)nc2ccccc12` [Example 113], for which the half-inhibitory concentration (IC50) amounted to 570 nM. Same read-out and setting: the figure for `CN(C)CCCNc1cc(-c2ccc(N3CCN(C)C(=O)C3)cc2)nc2ccccc12` [Example 114] is 600 nM; for `NCCCNc1cc(-c2ccc3c(c2)CCO3)nc2ccccc12` [Example 116] it is 640 nM.

Take `[2H]C([2H])([2H])Oc1ccc(-c2cc(NCCCN)c3ccccc3n2)cc1` [Example 117]: the IC50 is 760 nM. For `CN(C)CCCNc1cc(-c2ccc3ncccc3c2)nc2ccccc12` [Example 118], the half-maximal inhibitory concentration (IC50) is 800 nM. With `NCCCNc1cc(C2=CCNCC2)nc2ccccc12` [Example 120], the IC50 was determined as 870 nM. The same measure, in the same setting: the value for `COc1ccc(-c2cc(NC3CCNCC3)c3ccccc3n2)cc1` [Example 122] was 1170 nM.

For `[2H]C([2H])([2H])Oc1ccc(-c2cc(NCCCN(C)C)c3ccccc3n2)cc1` [Example 123], the IC50 stood at 1210 nM.

Consider `CN(C)CCCNc1cc(-c2ccc3occc3c2)nc2ccccc12` [Example 124], for which the IC50 is 1280 nM.

Regarding `Cn1cc(-c2cc(NCCCN)c3ccccc3n2)cn1` [Example 125], the IC50 came to 1300 nM. In the case of `CN(C)CCCNc1cc(-c2cnn(C3CC3)c2)nc2ccccc12` [Example 127], the IC50 amounted to 1510 nM. Same read-out and setting: the figure for `NCCCNc1cc(C2=CCCCC2)nc2ccccc12` [Example 128] is 1570 nM. The same measure, in the same setting: the figure for `COc1ccc(-c2cc(NCCCN(C)C(=O)[C@H](C)N)c3ccccc3n2)cc1` [Example 129] is 1660 nM. In the case of `[2H]C([2H])([2H])N(CCCNc1cc(-c2ccc(OC)cc2)nc2ccccc12)C([2H])([2H])[2H]` [Example 130], the IC50 was 1780 nM. On the same count and under the same terms, the figure for `NCCCNc1cc(-c2ccco2)nc2ccccc12` [Example 131] is 2550 nM; for `COc1ccc(-c2cc(NCCCN(C)C)c3ccccc3n2)cc1` [Example 132] it is 2720 nM; for `COc1ccc(-c2cc(NCCCN(C)C)c3c(F)cccc3n2)cc1` [Example 133] it is 2900 nM. The same measure, in the same setting: the value for `NCCCNc1cc(-c2cnn(CCN3CCOCC3)c2)nc2ccccc12` [Example 134] was 2940 nM; that for `COc1ccc(-c2cc(NCCCO)c3ccccc3n2)cc1` [Example 135] was 31700 nM; that for `COc1ncc(-c2cc(NCCCN(C)C)c3ccccc3n2)cn1` [Example 136] was 38500 nM. With `Cc1cc(NCCCN(C)C)c2ccccc2n1` [Example 137], the IC50 turned out to be 45600 nM. On to `COc1ccc(-c2cc(NCCC(=O)N(C)C)c3ccccc3n2)cc1` [Example 138], for which the IC50 turned out to be 52600 nM. The same measure, in the same setting: the value for `COc1ccc(-c2cc(NCCCN(C)C)c3ccccc3n2)cn1` [Example 139] was 6510 nM; that for `COc1ccc(-c2cc(NCCCN(C)C)c3cc4c(cc3n2)OC(F)(F)O4)cc1` [Example 140] was 6560 nM. On the same count and under the same terms, the figure for `COc1ccc(-c2cc(NC3CCC(F)(F)CC3)c3ccccc3n2)cc1` [Example 141] is 64500 nM.

For the compound `COc1ccc(-c2cc(NCCC(=O)OC(C)(C)C)c3ccccc3n2)cc1` [Example 142], the IC50 came out at 65300 nM. The same measure, in the same setting: the value for `COc1ccc2nc(C(F)(F)F)cc(NCCCN(C)C)c2c1` [Example 143] was 79400 nM; that for `COc1cc2c(NCCCN(C)C)ccnc2cc1OCCCN1CCCC1` [Example 144] was 10 nM. `COc1cc2nccc(NCCCN(C)CCCN)c2cc1OC` [Example 146]: the IC50 was 410 nM. On the same count and under the same terms, the value for `COc1cc2nccc(NCCCN(C)CCCN)c2cc1OC` [Example 147, N^1-(3-aminopropyl)-N^3-(6,7-dimethoxyquinolin-4-yl)-N^1-methylpropane-1,3-diamine] was 840 nM.

The target of a further test is T1, TDP-43.
Assay: not given
The note with it: previously reported; cited from earlier work.
For `COc1ccc(-c2cc(NCCCN(C)C)c3ccccc3n2)cc1` [(XXVIII)], the “caspase-7 cleavage of TDP-43” value was “promoted caspase-7 cleavage of TDP-43”.

The target in another test is T1, TDP-43.
Assay: not given
The conditions noted are these: using bt-(TG)6, not bt-TAR32; cited from earlier work.
As to `COc1ccc(-c2cc(NCCCN(C)C)c3ccccc3n2)cc1` [(XXVIII)], the “activity in TDP-43 alpha-screen” value is “active”.
